Assay results: US11021455B2, “Brominated furanone derivative, method for preparing same, and pharmaceutical composition containing same as active ingredient” (SEOUL NATIONAL UNIVERSITY R&DB FOUNDATION, priority 2016, dated 2021)
Where two headings read alike, the source gives them in different places.

Columns and labels:
[1] = system: biofilms of F. nucleatum, givalis and T. forsythia; assay: Biofilm morphology, confocal scanning laser microscope technique; format: cell-based; details: live/dead staining; FIG. 22
Experimental: (§1) Particularly, a sterilized cover glass slip (round shape with a radius of 12 mm) was placed on each well of a cell culture plate (24 well plate) by using a pincette. F. nucleatum A1-2 was added to cell culture medium (BHI medium+supplements) at the volume of 10% by the total volume.
(§2) The compounds of examples of the present invention were diluted to make the final concentration of each compound of 2 μM, 0.2 μM and 0.02 μM (BH1 medium: Brain Heart Infusion Medium, supplements: hemin (10 μg/ml) and vitamin K (0.2 μg/ml)).
(§3) The prepared culture solution was added to each well of the plate where the glass slip was placed, and the desired number of bacteria was inoculated into each well (F. nucleatum: 2×10^7 cells/ml, P. gingivalis: 4×10^8 cells/ml, T. forsythia: 2×10^8 cells/ml).
(§4) The prepared well plate was incubated at 37° C. under anaerobic condition (10% H2, 10% CO2 and 80% N2) for 48 hours for the culture of bacteria. The biofilm formed on the glass slip by the bacteria cultured in each group was quantitatively and comparatively analyzed using the following techniques.
The glass slip whereon biofilm had been formed was stained by using a live/dead-BacLight bacterial viability kit (Invitrogen, Grand Island, N.Y., USA), and the morphology of the biofilm was observed under a confocal scanning laser microscope and compared.

P. gingivalis biofilm = assay: Inhibition of biofilm formation, crystal violet staining (OD595); format: cell-based; details: 2000 nM, 200 nM and 20 nM; FIG. 21
Experimental: (§5) Particularly, a sterilized cover glass slip (round shape with a radius of 12 mm) was placed on each well of a cell culture plate (24 well plate) by using a pincette. F. nucleatum A1-2 was added to cell culture medium (BHI medium+supplements) at the volume of 10% by the total volume. The compounds of examples of the present invention were diluted to make the final concentration of each compound of 2 μM, 0.2 μM and 0.02 μM (BH1 medium: Brain Heart Infusion Medium, supplements: hemin (10 μg/ml) and vitamin K (0.2 μg/ml)). The prepared culture solution was added to each well of the plate where the glass slip was placed, and the desired number of bacteria was inoculated into each well (F. nucleatum: 2×10^7 cells/ml, P. gingivalis: 4×10^8 cells/ml, T. forsythia: 2×10^8 cells/ml). For the positive control not treated with the compounds of examples of the present invention (F.n AI-2), F. nucleatum AI-2 was added to the cell culture medium (BHI+supplements) and then the same number of cells was inoculated. In the meantime, for the negative control treated neither the compound of the present invention nor F. nucleatum A1-2 (Fn), PBS was added to the cell culture medium (BHI+supplements) instead of F. nucleatum A1-2 at the same volume as the above. The prepared well plate was incubated at 37° C. under anaerobic condition (10% H2, 10% CO2 and 80% N2) for 48 hours for the culture of bacteria. The biofilm formed on the glass slip by the bacteria cultured in each group was quantitatively and comparatively analyzed using the following techniques. […] 200 μl of the decolorizing solution containing crystal violet was added to each well of the microplate, and OD595 was measured using a microplate reader (Microplate reader, Model 550, Bio-Rad, USA). The measured values were compared among the groups (As the biofilm formation increased by the molecules secreted by F. nucleatum was suppressed by the compound of the present invention, the measured value was decreased.).

F. nucleatum biofilm = assay: as above; format: cell-based; details: 20 nM; compared with furanone treated control group; FIG. 20
Experimental: as §5

[2] = system: biofilm formation of bacteria; assay: Evaluation of inhibition of biofilm formation (overall statements); format: cell-based; details: FIG. 20 to FIG. 21; 2000 nM, 200 nM and 20 nM
Experimental: as §1, §2, §3, §4
The glass slip whereon biofilm had been formed was stained with 1% crystal violet solution for 10 minutes, followed by washing with PBS (phosphate buffered saline) three times, and decolorized with acetone-alcohol.
200 μl of the decolorizing solution containing crystal violet was added to each well of the microplate, and OD595 was measured using a microplate reader (Microplate reader, Model 550, Bio-Rad, USA). The measured values were compared among the groups (As the biofilm formation increased by the molecules secreted by F. nucleatum was suppressed by the compound of the present invention, the measured value was decreased.).

[3] = system: IL-6 and IL-8 genes in HGF cells; assay: Effect on host cell immunity: IL-6 and IL-8 gene expression by real-time RT-PCR in HGF cells; format: cell-based, human
Experimental: (§6) To evaluate the effect of the compounds of the present invention on host cell (normal cell) immunity, the host cells were treated with the compounds of the present invention, followed by investigation of the activity of proinflammatory cytokines in host cells.
(§7) Particularly, in order to investigate whether or not the compounds of the present invention were able to induce inflammatory responses in host cells, the expression levels of proinflammatory cytokines including interleukin (IL)-6 and IL-8 were measured by real-time RT-PCR. THP-1 cells (1×10^6 cells/well) and HGF cells (2×10^5 cells/well) were distributed in a 6 well plate, followed by culture in the presence or absence of the compounds of examples (5, 6 and 13) or lipopolysaccharide (LPS, 1 mg) known as an endotoxin of Gram negative bacteria that causes a strong immune response in host cells at 37° C. for 24 hours. Upon completion of the 24 hour culture, RNA was extracted from the THP-1 and HGF cells by using Easy-Blue total RNA extraction kit (iNtRON Biotechnology, Seongnam, Korea) according to the manufacturer's protocol. A cDNA sample ([…]) synthesized from the extracted RNA ([…]) using MMLV reverse transcription kit (Promega, Madison, Wis.) was added to each primer pair (10 pM) and Power SYBR Green Master Mix (Applied Biosystems, Warrington, UK) at the reaction volume of […]. The mixture was applied to ABI PRISM 7500 Fast Real-Time PCR system (Applied Biosystems, Foster City, Calif., USA) by using thermocycling (thermocycling: denaturation at 95° C. for 15 seconds, annealing and extension at 60° C. for 1 minute). Glyceraldehyde 3-phosphate dehydrogenase (GAPDH) gene was used as a reference gene to normalize the gene expression levels of inflammatory cytokines including interleukin 6 (IL-6) and interleukin 8 (IL-8).

[4] = system: IL-6 and IL-8 genes in THP-1 cells; assay: Effect on host cell immunity: IL-6 and IL-8 gene expression by real-time RT-PCR in THP-1 cells; format: cell-based, human
Experimental: as §6, §7

induction of IL-6 and IL-8 gene expression (inflammatory response) in THP-1 cells [4] | Molecule | biofilm inhibitory activity (general statement) [2] | induction of IL-6 and IL-8 gene expression (inflammatory response) in HGF cells ([3]; human, 24 h) | other results
– | O=C1OC(=C(Br)Br)c2ccccc21 [Example 2, 3-(dibromomethylene)isobenzofuran-1(3H)-one] | – | – | inhibition of biofilm formation seen in confocal photographs [1]: inhibited the biofilm formation of bacteria
– | O=C1OC(=C(Br)Br)C2=C1CCCC2 [Example 3, 3-(dibromomethylene)-4,5,6,7-tetrahydroisobenzofuran-1(3H)-one] | – | – | P. gingivalis biofilm inhibitory activity (OD595) (P. gingivalis biofilm): excellent P. gingivalis biofilm inhibitory activity
– | O=C1OC(=C(Br)Br)C2=C1CCC2 [Example 4, 3-(dibromomethylene)-5,6-dihydro-3H-cyclopenta[c]furan-1(4H)-one] | – | – | inhibition of biofilm formation seen in confocal photographs [1]: inhibited the biofilm formation of bacteria; F. nucleatum biofilm inhibitory activity (OD595) (F. nucleatum biofilm): superior F. nucleatum biofilm inhibitory activity at the concentration of 20 nM to the furanone treated control group
not to induce inflammatory responses | O=C1OC(=C(Br)Br)C2CCCC12 (stereo not shown) [Example 5, 3-(dibromomethylene)-hexahydrocyclopenta[c]furan-1(3H)-one] | particularly excellent in inhibiting biofilm formation | did not induce the expressions of IL-6 and IL-8 genes | F. nucleatum biofilm inhibitory activity (OD595) (F. nucleatum biofilm): superior F. nucleatum biofilm inhibitory activity at the concentration of 20 nM to the furanone treated control group
not to induce inflammatory responses | Cc1ccc2c(c1)C(=C(Br)Br)OC2=O [Example 6, 3-(dibromomethylene)-5-methylisobenzofuran-1(3H)-one] | particularly excellent in inhibiting biofilm formation | did not induce the expressions of IL-6 and IL-8 genes | –
not to induce inflammatory responses | Cc1cccc2c1C(=O)OC2=C(Br)Br [Example 13, 3-(dibromomethylene)-7-methylisobenzofuran-1(3H)-one] | particularly excellent in inhibiting biofilm formation | did not induce the expressions of IL-6 and IL-8 genes | –
– | lipopolysaccharide [LPS, reference compound] | – | – | induction of IL-6 and IL-8 gene expression (inflammatory response) in HGF cells ([3]; 24 hours, normalised to GAPDH, FIG. 27): induced the expressions of both cytokines; induction of IL-6 and IL-8 gene expression (inflammatory response) in THP-1 cells ([4]; 24 hours, normalised to GAPDH, FIG. 26): induced the expressions of IL-6 and IL-8 genes
